Experimental data: US20220332839A1, “USE OF PRG4 TO TREAT CANCER” (Lubris LLC, priority 2019, published 2022)

Tests used:
[1] = test system: colon cancer; assay: Treatment of a human with colon cancer, systemic administration; format: in vivo; details: 500 mg rhPRG4 via central venous catheter, once weekly for four weeks
Experimental: An 80 kg human diagnosed with colon cancer is administered recombinant human PRG4 (rhPRG4) by systemic administration via a central venous catheter. A total amount of 500 mg of rhPRG4 in 250 mL of physiological saline at a concentration of 2.0 mg/mL of lubricin is administered to create a blood concentration of approximately 100 μg/mL. The dose is administered once weekly for four weeks.

[2] = test system: HLE and HLF cells; assay: HCC trans-well migration assay on fibronectin; format: cell-based, human; details: soluble rhPRG4 25 μg/ml; 16 hours
From the text: (§1) Stable CD44 silencing: HLE and HLF cell lines were transduced with lentiviral particles carrying control non-targeting (V), or specific CD44-targeting shRNA sequences (A to D), and selected with puromycin dihydrochloride (Thermo Fisher Scientific) to obtain stable CD44 silencing, according to manufacturer instructions (OriGene Technologies, Inc., Rockville, Md. 20850, USA). Control-shRNA sequence (V) and CD44-shRNA sequence B were used in all the experiments involving CD44 downregulation.
Trans-well migration assay: The assay was performed as previously described. (Dituri et al., PLoS One 2013. doi:10.1371/journal.pone.0067109). Briefly, 15,000 cells were loaded onto the top chamber of the trans-well, whose membrane was previously coated with fibronectin on the lower surface, and left to migrate for 16 hours in the presence/absence of rhPRG4 (25 μg/ml) diluted in serum-free DMEM medium (+0.5% BSA) in the lower chamber. The cells were then paraformaldehyde-fixed and stained with crystal violet. Five fields/membrane were captured and the number of cells/field was measured.

[3] = test system: HLE and HLF cells; assay: HCC cell adhesion assay on coated wells; format: cell-based, human; details: CD44-shRNA vs control-shRNA; 30 minutes
From the text: as §1
Adhesion assay: Diluted in 100 μl of serum free DMEM medium (+0.5% BSA), 50,000 cells, were seeded onto uncoated, rhPRG4, or fibronectin (FN)-coated wells of a 96-well plate, and then incubated at 37° C., 5% CO2 for 30 minutes. An equal volume of 4% PFA (pH 7.2 in PBS) was added and the plates were immediately flicked for a few seconds to allow mixing. Thirty minutes later, the medium was removed and the adherent cells were stained with crystal violet for 10 min. After abundant washing with tap water and distilled water the stained cells were allowed to dry out, and then they were solubilized with 100 μl of 1% sodium dodecyl sulphate in water. Absorbance was read at 595 nm and proportionally related to the number of adhered cells.

[4] = test system: HCC cells (HLE, HLF, PLC/DC/19, Hep3B, PLC/PRF/5); assay: 72-hour proliferation assay, all HCC cells; format: cell-based, human
Experimental: (§2) Proliferation assay: In 100 μl complete medium, 3,000 cells were seeded in wells of a 96-well plate and left overnight to allow complete attachment. The next day (at time t=0 hours), the medium was removed and replaced with 100 μl of fresh medium in the presence/absence of Sorafenib (2.5 μM), Regorafenib (2.5 μM), rhPRG4 (12.5 to 100 μg/ml). Dimethyl sulfoxide (DMSO) and PBS+0.01% Tween-20 were used as vehicles of Sorafenib/Regorafenib, and rhPRG4, respectively. Cells in triplicate wells for each cell line were fixed at t=0 hours with 4% paraformaldehyde (PFA, pH 7.6, 10 min incubation), then stained with crystal violet (CV) and thoroughly washed to remove the excess staining. After 72 hours, the cells were fixed by adding 100 μl of 4% PFA directly to the medium (2% final PFA concentration, 20 min incubation), and processed for CV staining as previously described. Then, 100 or 200 μl of 1% sodium dodecyl-sulphate were added to the wells and the plates were left under shaking until complete CV release from stained cells. Optical density was at 595 nm wavelength measured using a plate reader.

[5] = test system: HLE, HLF and PLC/DC/19 cells; assay: 72-hour proliferation assay, CD44 positive HCC cells; format: cell-based, human; details: drug 2.5 μM, rhPRG4 12.5 to 100 μg/ml
Experimental: as §2
Characterization of the primary HCC cells line PLC/DC/19: The primary HCC cell line, PLC/DC/19, was isolated from freshly collected surgically resected HCC specimen following the same isolation procedure to isolate CAFs. […]

[6] = test system: lubricin (PRG4) mRNA; assay: PRG4 mRNA expression in CAFs and ex vivo HCC specimens; format: cell-based, human; details: 48 hours; CAFs (p<0.01) and HCC samples (p<0.05)
Experimental: RNA extraction and cDNA synthesis: […] of frozen ex-vivo treated HCC tissues were ground with a mortar-pestle in the presence of liquid nitrogen until a thin powder was obtained. The ground tissues were lysed with 0.5-1 ml of RLT buffer+1% (BME) and then processed according to the manufacturer's recommendations (RNeasy kit, Qiagen). […] The obtained RNA was assayed for quality and concentration using the NanoDrop 2000/2000c (Thermo Fisher Scientific). cDNA was synthetized using the High Capacity cDNA reverse transcription kit (Thermo Fisher Scientific), according to relative datasheet.
Real time PCR: One ng/μl of cDNA was used in total 20 μl reaction mix in the presence of 500 nM of each forward and reverse primer referred to a specific gene of interest, and 2×SYBR green master mix (Bio-Rad). The reaction was conducted in a CFX96 Touch Real-Time Detection System (Bio-Rad).
CAFs isolation: Immediately after surgical resection, HCC tumoral and peritumoral specimens were minced into 0.5-1 cm pieces and left in MACS Tissue Storage Solution (Miltenyi Biotec). The tissues were then further cut into smaller size pieces (1-2 mm), washed three times in Hanks balanced salt solution (HBSS), and then incubated in HBSS in the presence of type IV collagenase (Thermo Fisher Scientific) and 3 mM CaCl2 at 37° C. under gentle rotation for 4 hours. At the end of this step, the dissociation was mechanically facilitated by pipetting up-down the digested tissues with a large size orifice 50 ml pipette. The floating cells were collected and washed three times with HBSS and seeded in normal culture conditions in IMDM+20% FBS. The decanted, partially digested tissue specimens were subjected to a second round of digestion (as previously described). The resulting dissociated cells were washed with HBSS and cultured in IMDM+20% FBS. […] The presence of minimal contaminating non-fibroblastic cells (mostly cancerous hepatocytes, cholangiocytes and macrophages) was evaluated using antibodies to EpCAM, CD45, and CD11b.

Row | Substance | tumor size by CT scan after four weeks [1] | migration of cells on fibronectin [2] | cell adhesion to lubricin-coated wells [3] | cell proliferation, rhPRG4 alone [4] | effectiveness of Sorafenib or Regorafenib when coupled with rhPRG4 [5] | expression of lubricin mRNA [6]
1 | rhPRG4: full-length recombinant human PRG4 (lubricin) glycoprotein produced by CHO-M cells; residues 25-1404 of SEQ ID NO:1 | decreased in size | impairs the migration | impaired upon silencing of CD44 expression | did not markedly impair the cell proliferation | strongly and synergistically improved their effectiveness | –
2 | TGFβ: recombinant human mature transforming growth factor beta (R&D systems) [reference compound] | – | – | – | – | – | significantly enhanced the expression of lubricin
